Measured values reported in patent US20200078323A1, “METHOD OF TREATING OVARIAN CANCER USING ZETA-STAT” (University of South Florida, priority 2018, published 2020).
Entries after “also recorded” stand apart in the source; their conditions may differ.

Legend:
CCOC cells = assay: Wound healing / cellular invasion of CCOC cells; format: cell-based
Text: (§1) Ovarian cancer is the most lethal gynecological cancer. […] The most common ovarian cancer diagnosis is epithelial ovarian carcinomas, which constitute for 85-90% of prognosis. Of epithelial ovarian carcinomas, clear cell ovarian carcinoma (CCOC) represents 5% of incidence. CCOC presents unique pathological features and has a high reoccurrence rate after treatment. An overexpression of atypical PKCs (PKC-ζ and PKC-ι/λ) has been observed in various malignant cell lines and is linked to pathways for cellular proliferation and invasion. Ovarian cell lines (TOV21G and ES-2) were treated with the atypical PKC-ζ inhibitor ζ-Stat (8-hydroxynaphthalene-1,3,6-trisulfonic acid) and assayed to determine the effects on proliferation and cellular invasion. […] Tumor growth in athymic female mice is decreased when treated with ζ-Stat and the mouse body weight is maintained. Thus, PKC-ζ is identified herein as a novel target in carcinogenesis and inhibition of this protein decreases the rate of proliferation.

PKC-ι = target: T1, PKC-ι (Homo sapiens, UniProt P41743); assay: Protein expression of PKC-ι in TOV21G and ES-2 cells; format: cell-based; settings: protein and genomic studies
T1 construct: endogenous in cells; host or cells: TOV21G and ES-2 cells
T1 sequence (P41743 1-596): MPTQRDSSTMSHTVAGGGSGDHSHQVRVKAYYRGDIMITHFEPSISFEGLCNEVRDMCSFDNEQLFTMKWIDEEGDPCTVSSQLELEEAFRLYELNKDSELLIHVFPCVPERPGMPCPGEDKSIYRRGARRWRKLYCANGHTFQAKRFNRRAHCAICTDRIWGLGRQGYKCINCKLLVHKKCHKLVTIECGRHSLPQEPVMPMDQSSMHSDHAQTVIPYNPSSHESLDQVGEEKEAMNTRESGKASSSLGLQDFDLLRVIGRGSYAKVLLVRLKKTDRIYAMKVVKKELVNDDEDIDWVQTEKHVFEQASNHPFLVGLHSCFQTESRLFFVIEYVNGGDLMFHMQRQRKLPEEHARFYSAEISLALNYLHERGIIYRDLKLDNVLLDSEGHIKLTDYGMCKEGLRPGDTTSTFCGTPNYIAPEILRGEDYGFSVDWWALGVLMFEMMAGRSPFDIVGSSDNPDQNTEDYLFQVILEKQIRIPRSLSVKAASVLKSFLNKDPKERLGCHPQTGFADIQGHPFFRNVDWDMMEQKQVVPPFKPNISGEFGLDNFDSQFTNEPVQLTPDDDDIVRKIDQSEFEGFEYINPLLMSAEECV
Method: (§2) FIGS. 3A-3B. Protein expression of […] and […] of TOV21G and ES-2 cells when treated for 24, 48, and 72 hours with DMSO, ICA-1, and ζ-Stat. (FIG. 3A) TOV21G protein expression levels with treatments and quantified N=3. (FIG. 3B) ES-2 protein expression levels with treatments and quantified N=3.

RhoA = assay: Protein and genomic expression of RhoA in TOV21G cells; format: cell-based; settings: 72 hours
Method: (§3) FIGS. 4A-4B. Protein expression of PKC-ζ and RhoA of TOV21G and ES-2 cells when treated for 72 hours with DMSO and ζ-Stat and genomic expression of RhoA in TOV21G. (FIG. 4A) TOV21G and ES-2 protein expression after 72 hours of treatment. (FIG. 4B) TOV21G genomic expression of RhoA with ζ-Stat treatment after 72 hours of treatment.

TOV21G xenographs = assay: TOV21G xenograph tumor growth in athymic female nude mice; format: in vivo; settings: 20 mg/kg, every other day, subcutaneously intra-tumor and around the tumor site
Method: (§4) FIGS. 5A-5C. In-vivo TOV21G xenographs treated with 1×DPBS (vehicle, N=6) and 20 mg/kg ζ-Stat (N=6) for 30 days. (FIG. 5A) Tumor growth (mm^3) for the control mice and the treatment mice. The graph at the bottom represents the average body weight of the mice throughout the treatment period. (FIG. 5B) Tumors extracted at the endpoint of the experiment. The graph below represents the size of tumors from the treatment group represented as the percentage of the control. (FIG. 5C) Enzyme panel tested after the endpoint of the experiment. The bars represent glucose, BUN, ALT, AST and ALKP levels.
(§5) Effects of ζ-Stat on athymic mice ovarian xenograph were tested. Twelve athymic female nude mice weighing between 20-25 g and more than 10 weeks of age were used. The mice were divided into two groups after TOV21G cells (CRL-11730, American Type Culture Collection) were implanted (A million cells/mouse flank in 0.2 ml of media). The first group was the control group (n=6), which received 100 μl of DPBS (21-031-CM, Corning Cellgro, VA). The second group (n=6) received 100 μl of 20 mg/kg of ζ-Stat dissolved in DPBS. The tumor volume was calculated using the formula: length×width×width×½. Three days after implantation of the cells, the tumors were treated as of day 0. The treatments were administered every other day subcutaneously intra-tumor and around the tumor site for […].

TOV21G cells = assay: Proliferation of TOV21G cells treated with ζ-Stat (cellometer count, WST-1); format: cell-based; settings: 24, 48 and 72 hours, control DMSO
Method: FIGS. 1A-1C. Proliferation curves for TOV21G cells treated with ζ-Stat. TOV21G cells were treated with ζ-Stat for 24, 48, and 72 hours. The control cells were treated with DMSO. (FIG. 1A) Treatments counted on a cellometer. (FIG. 1B) Standard curve for TOV21G cells in WST-1 reagent. (FIG. 1C) Treatments after 72 hours measured using WST-1 reagent.
as §1

[1] = Toxicity and body weight in xenograph mice (enzyme panel, body weight); format: in vivo
Method: as §4, §5

PKC-ζ = target: T2, PKC-ζ (Homo sapiens, UniProt Q05513); assay: Protein expression of PKC-ζ in TOV21G and ES-2 cells; format: cell-based; settings: protein and genomic studies
T2 construct: Protein expression of PKC-ζ and RhoA of TOV21G and ES-2 cells when treated for 72 hours with DMSO and ζ-Stat; endogenous in cells; host or cells: TOV21G and ES-2 cells
T2 sequence (Q05513 1-592): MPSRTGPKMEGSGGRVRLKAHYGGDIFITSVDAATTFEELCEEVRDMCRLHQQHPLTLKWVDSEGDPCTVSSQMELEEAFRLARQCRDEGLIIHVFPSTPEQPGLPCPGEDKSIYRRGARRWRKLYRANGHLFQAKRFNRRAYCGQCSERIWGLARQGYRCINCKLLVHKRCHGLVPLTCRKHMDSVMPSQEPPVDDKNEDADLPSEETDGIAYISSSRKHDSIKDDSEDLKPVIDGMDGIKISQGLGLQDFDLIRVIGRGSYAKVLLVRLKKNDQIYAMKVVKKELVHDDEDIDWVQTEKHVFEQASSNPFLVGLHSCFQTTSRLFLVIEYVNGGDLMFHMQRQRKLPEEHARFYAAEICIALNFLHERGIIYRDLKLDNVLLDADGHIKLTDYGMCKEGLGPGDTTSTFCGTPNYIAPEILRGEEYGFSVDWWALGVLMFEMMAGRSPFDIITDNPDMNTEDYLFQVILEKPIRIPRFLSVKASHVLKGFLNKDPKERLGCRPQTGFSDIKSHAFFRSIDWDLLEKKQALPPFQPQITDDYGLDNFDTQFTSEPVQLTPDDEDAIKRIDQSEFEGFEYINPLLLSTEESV
Method: as §2, §3

ES-2 cells = assay: Proliferation of ES-2 cells treated with ζ-Stat (cellometer count, WST-1); format: cell-based; settings: 24, 48 and 72 hours, control DMSO
Method: FIGS. 2A-2C. Proliferation curves for ES-2 cells treated with ζ-Stat. ES-2 cells were treated with ζ-Stat for 24, 48, and 72 hours. The control cells were treated with DMSO. (FIG. 2A) Treatments counted on a cellometer. (FIG. 2B) Standard curve for ES-2 cells in WST-1 reagent. (FIG. 2C) Treatments after 72 hours measured using WST-1 reagent.
as §1

## O=S(=O)(O)c1cc(O)c2c(S(=O)(=O)O)cc(S(=O)(=O)O)cc2c1 [ζ-Stat, 8-hydroxynaphthalene-1,3,6-trisulfonic acid]
CCOC cells
  wound healing: decreased wound healing
PKC-ι
  expression of PKC-ι: not the expression of PKC-ι
RhoA
  expression of RhoA at the genomic level: knocks down the expression of RhoA
  expression of RhoA at the protein level: knocks down the expression of RhoA
TOV21G xenographs
  tumor growth: decreased; also recorded: reduced
TOV21G cells
  proliferation of TOV21G cells: decreased
[1]; athymic female mice treated with ζ-Stat
  mouse body weight: maintained
[1]; mice, 20 mg/kg, after 30 days of treatment
  toxic effect: did not have a toxic effect
PKC-ζ
  expression of PKC-ζ: knocks down the expression of PKC-ζ
ES-2 cells
  proliferation of ES-2 cells: decreased
